Measured values: US20160144021A1, “Vaccine Composition And Method Of Use” (MEDIMMUNE, LLC, priority 2013, published 2016)

Key:
Assay type in all cases: in vivo
[1] = system: RSV-F-derived MHC I restricted peptide; assay: Granzyme B ELISPOT of splenocytes, naive BALB/c mice; settings: splenocytes 4 days post challenge
Source text: FIGS. 1A-F are graphs showing immune responses to adjuvanted RSV sF vaccines in naïve BALB/c mice. Mice (N=7 per group) were immunized at days 0 and 14 with the indicated vaccines and challenged with 6 log10 PFU of RSV at day 28. Representative data shown from 1 of 2 experiments run with all groups. (A) Lung Viral Titers. Residual virus in the lungs of animals 4 days post challenge was quantified by plaque assay. Individual results are presented in log10, along with a bar representing the group geometric mean. Individuals with undetectable titers were scored at the assay limit of detection (LOD), ˜1.4 log10. (B) Serum RSV-GFP Neutralizing Titers. […] Individuals with undetectable titers were scored at the assay limit of detection (LOD) of 3.3 log2, indicated by a dashed line. […] Shown are the specific IFNγ, IL-5, IL-13, and IL-17 responses to an immunodominant MHC II restricted RSV-F peptide pool calculated by subtracting media control values from test values in multiplexed cytokine analysis. […] Day 28 sera (n=7 per group) were evaluated for F-specific IgG1 and IgG2a isotypes by endpoint titer ELISA. […]
Th1-type responses to a vaccine such as those seen with RSV sF+GLA-SE may support the development of strong CD8 T cell responses. […] To evaluate the cytolytic potential of these responding cells, we evaluated F-specific Granzyme B secretion by ELISPOT.

RSV A2 [2] = assay: Lung and nose viral titers by plaque assay after RSV challenge, naive cotton rats; settings: 0.3 μg RSV sF IM, 4 days post challenge
RSV A2 [3] = assay: RSV A2-GFP microneutralization of sera, 1x RSV seropositive BALB/c mice
Method: Naïve female BALB/c mice were divided into designated vaccine cohorts of 8-9 mice each and dosed at Day 0. […] Successful seroconversion was confirmed by F-specific ELISA endpoint titers on Day 0. Groups of 9 mice were inoculated intramuscularly (IM) with the vaccine formulations at Day 0. 3 mice per group were evaluated for cellular immune responses at 10 days post […], while the remaining 5-6 animals per group were followed for serum antibody responses through Day 73.
Serology readouts were made at Days 0, 14, 28, 42, 56, and 73 for each group. Animals were lightly anesthetized with isoflurane and bled intraorbitally. Serum was separated and stored at −20° C. and thawed for testing. Total anti-F IgG were measured at each timepoint, with anti-F IgG1 and anti-F IgG2a ELISA endpoint dilution titers measured at Day 0 and Day 42. RSV neutralization titer was determined by a RSV A2-GFP microneutralization assay. The polyclonal nature of the anti-F IgG response was evaluated on Day 42 by competition ELISA with site-specific monoclonal antibodies to RSV-F. Anti-F IgA endpoint dilution titers were measured at Day 14 for each group.

RSV A2 [4] = assay: Lung and nose RSV titers after challenge, vaccinated Sprague Dawley rats; settings: 10 or 100 μg RSV sF, 4 days post challenge
Method: In a subsequent study, the immunogenicity and protection following a prime-boost regimen of RSV-SF was evaluated. 40 naive female Sprague Dawley rats were divided into designated vaccine cohorts of 5-6 animals per cohort. Briefly, test groups were given RSV sF (10 μg or 100 μg per animal) without adjuvant or RSV sF (10 μg or 100 μg per animal) with GLA-SE (2.5 μg in 2% SE). Negative control groups were dosed with placebo (PBS buffer) or adjuvant GLA-SE (2.5 μg/2%) without RSV sF. […] Groups 1-6 were inoculated IM with 500 μL of designated vaccine article on Day 0 and Day 22, while Group 7 was inoculated IN with 200 μL of RSV A2 virus on day 0 only. […] Rats were euthanized at 4 days post challenge on Day 46, the day of peak viral replication determined from Study 1. Lungs (excluding 1 lobe which was formalin-fixed) and noses were homogenized and quantified for viral titers.

[5] = system: RSV F peptide pool of overlapping 15-mers; assay: F-specific IFNγ ELISPOT of PBMC, cynomolgus monkeys
Method: To determine whether immunization with sF formulated with GLA-SE enhanced an F-specific T cell response, F-specific IFNγ T cell responses were measured by ELISPOT following restimulation with a peptide pool of overlapping 15-mers derived from the RSV F protein sequence. […] While the number of T cells in the sF+GLA-SE group decreased over time, one animal still met the definition of a positive responder out to day 169. At Day 169, 5 months post vaccination, a booster vaccination was given. […] In comparison, 0 of 4 monkeys in the sF alone group responded with an increase in IFNγ secreting F-specific T cells (mean 5 SFC/million).

RSV sF: RSV soluble F protein, amino acids 1-524 of the RSV A2 F sequence lacking the transmembrane domain, given without adjuvant
F-specific Granzyme B ELISPOT responses (mean) [1]: 18
mean RSV titer in the lungs (RSV A2 [2]): 5.4 log10 pfu/gram
mean RSV titer in the nose (RSV A2 [2]): 4.9 log10 pfu/gram
mean RSV neutralizing titers (RSV A2 [3]; Day 14, dose 0.4 μg RSV sF assumed from order): 8.32 log2
mean RSV neutralizing titers (RSV A2 [3]; Day 14, dose 10 μg RSV sF assumed from order): 8.66 log2
mean RSV neutralizing titers (RSV A2 [3]; Day 14, second value, dose 2 μg RSV sF assumed from order): 7.82 log2
animals per group with titers below the limit of detection (RSV A2 [4]): 1-2
mean F-specific IFNγ ELISPOT response ([5]; Day 42): 8 SFC/million PBMC
animals with positive F-specific IFNγ ELISPOT response ([5]; Day 42, ≥50 SFC/million increase and 4-fold rise from day −7): 0 of the 4
animals with positive F-specific IFNγ ELISPOT response ([5]; Day 183): 0 of 4
mean F-specific IFNγ ELISPOT response ([5]; Day 183): 5 SFC/million
